Consider one compound from US20190064149A1, “CANCER EXAMINATION METHOD AND EXAMINATION KIT” (THE UNIVERSITY OF TOKYO, priority 2013, published 2019).

For this experiment, the target named is T1, MT1-MMP (Homo sapiens, UniProt P50281).
T1 construct: expressed in transfected cells; host or cells: HT1080 (human fibrosarcoma) stably expressing c-myc-EphA2, transiently transfected with pSG-MT1-MMP
As to the kind of experiment: EphA2 processing by MT1-MMP in HT1080 cells forcibly expressing MT1-MMP and Myc-labeled EphA2, western blotting. The experiment is classed as cell-based. The procedure: HT1080 cells expressing c-myc-EphA2 stably were prepared by a ViraPower™ lentiviral expression system using a plenti-c-myc-EphA2 vector in HT1080 and expression vectors (pSG-MT1-6-MMPs) of MT1-6-MMPs were transiently introduced into the resulting cells. EphA2 and MT1-MMP were detected by western blotting using an anti-Myc polyclonal antibody and an anti-MT1-MMP monoclonal antibody. Respective expression vectors of the MT-MMPs were introduced using FuGene6 (Rhoche). Expression of c-myc-EphA2 and wild type MT1-MMP was confirmed by solubilizing each of the cells (10 cm) by RIPA and then performing immunoprecipitation (IP) of EphA2 and stud thereof by an anti C-myc antibody. In order to inhibit the protease activity of MT1-MMP, BB94 or TIMP-2 was added as an MMP inhibitor to a culture solution.

Regarding `CNC(=O)[C@H](Cc1ccccc1)NC(=O)[C@H](CC(C)C)[C@H](CSc1cccs1)C(=O)NO` [BB94], the “EphA2 species purified by immunoprecipitation with Myc antibody” value (HT1080 cells co-expressing Myc-EphA2 and wild type MT1-MMP) is reported as “only a full length type EphA2”. Further, where the note is “HT1080 cells forcibly expressing MT1-MMP, inhibitor added to culture solution”, the “production of 65 and 60 kDa EphA2 processed fragments” value is on record as “suppressed”.
